Holding throughout (experiment): Bacterial growth minimal inhibitory concentration (broth microdilution, CLSI M7-A7)
What all share (assay type): cell-based

Experiment [1] has as its system Moraxella catarrhalis A894. To be noted: quinolone-sensitive strain; for MIC: Moraxella catarrhalis, A894, cation-adjusted Mueller-Hinton Broth; for MIC for M. catarrhalis A894: cation-adjusted Mueller-Hinton Broth. A digest of the protocol:
(§1)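 Testing used quinolone-resistant, multiply resistant isolates (S. aureus A798, A. baumannii T6474) plus quinolone-sensitive M. catarrhalis A894 and methicillin-sensitive S. aureus ATCC29213. MICs, in mg/L, came from CLSI M7-A7 microdilution in cation-adjusted Mueller-Hinton broth.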

Experiment [2] concerns Acinetobacter baumannii T6474. To be noted: multiply-resistant strain (in particular quinolone-resistant); for MIC: Acinetobacter baumannii, T6474, cation-adjusted Mueller-Hinton Broth; for MIC for A. baumannii T6474: cation-adjusted Mueller-Hinton Broth. Put shortly: as §1
For experiment [3], the system named is Staphylococcus aureus A798. To be noted: multiply-resistant strain (in particular quinolone-resistant); for MIC: Staphylococcus aureus, A798, cation-adjusted Mueller-Hinton Broth, read-out: MIC for S. aureus A798; for MIC for S. aureus A798: cation-adjusted Mueller-Hinton Broth. A digest of the protocol:
as §1

The test system of experiment [4] is Staphylococcus aureus ATCC29213. To be noted: methicillin-sensitive and quinolone-sensitive strain; for MIC: Staphylococcus aureus, ATCC29213, cation-adjusted Mueller-Hinton Broth, read-out: MIC for S. aureus ATCC29213; for MIC for S. aureus ATCC29213: cation-adjusted Mueller-Hinton Broth. A digest of the protocol:
as §1

In experiment [5] the test system is Enterococcus faecium A949. To be noted: multiply-resistant strain (in particular quinolone-resistant); for MIC: Enterococcus faecium, A949, cation-adjusted Mueller-Hinton Broth, read-out: MIC for E. faecium A949; for MIC for E. faecium A949: cation-adjusted Mueller-Hinton Broth. Put shortly:
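Broth microdilution after CLSI M7-A7 in cation-adjusted Mueller-Hinton medium gave MIC values in mg/L.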

Usually MIC stands for the least concentration at which growth counts as inhibited.

Converted amounts (≈) assume the structure as drawn.

`N#Cc1cccc(-c2cccc(CNCC[C@H]3CN(c4ccc5c(n4)NC(=O)CS5)C(=O)O3)c2O)n1` [Example 94, 6-[2-hydroxy-3-({2-[(S)-2-oxo-3-(3-oxo-3,4-dihydro-2H-pyrido[3,2-b][1,4]thiazin-6-yl)-oxazolidin-5-yl]-ethylamino}-methyl)-phenyl]-pyridine-2-carbonitrile]: the MIC in experiment [1] was ≤ 0.016 µg/mL; in experiment [2], 0.031 µg/mL (≈ 0.0617 µM); in experiment [3], ≤ 0.016 µg/mL; in experiment [4], ≤ 0.016 µg/mL; in experiment [5] it was 0.125 µg/mL (≈ 0.249 µM).
With `N#Cc1cccc(-c2cccc(CNCC[C@@H]3CN(c4ccc5c(n4)NC(=O)CO5)C(=O)O3)c2)c1` [Example 33, 3′-({2-[(R)-2-oxo-3-(3-oxo-3,4-dihydro-2H-pyrido[3,2-b][1,4]oxazin-6-yl)-oxazolidin-5-yl]-ethylamino}-methyl)-biphenyl-3-carbonitrile], the MIC is ≤ 0.016 µg/mL in experiment [1]; 0.125 µg/mL (≈ 0.266 µM) in experiment [2]; 0.25 µg/mL (≈ 0.532 µM) in experiment [3]; 0.125 µg/mL (≈ 0.266 µM) in experiment [4]; 2 µg/mL (≈ 4.26 µM) in experiment [5].
As for `COC(=O)c1cccc(-c2cccc(CNCC[C@H]3CN(c4ccc5c(n4)NC(=O)CO5)C(=O)O3)c2)c1` [Example 77, 3′-({2-[(S)-2-oxo-3-(3-oxo-3,4-dihydro-2H-pyrido[3,2-b][1,4]oxazin-6-yl)-oxazolidin-5-yl]-ethylamino}-methyl)-biphenyl-3-carboxylic acid methyl ester], the MIC in experiment [1] is ≤ 0.063 µg/mL; in experiment [2], 2 µg/mL (≈ 3.98 µM); in experiment [3], 0.25 µg/mL (≈ 0.497 µM); in experiment [4], 0.5 µg/mL (≈ 0.995 µM); in experiment [5] it was 4 µg/mL (≈ 7.96 µM).
With `COc1cccc(-c2cccc(CNCC[C@@H]3CN(c4ccc5c(c4)NC(=O)CS5)C(=O)O3)c2F)c1` [Example 12, 6-((R)-5-{2-[(2-fluoro-3′-methoxy-biphenyl-3-ylmethyl)-amino]-ethyl}-2-oxo-oxazolidin-3-yl)-4H-benzo[1,4]thiazin-3-one], the MIC turned out to be 0.063 µg/mL (≈ 0.124 µM) in experiment [1]; 2 µg/mL (≈ 3.94 µM) in experiment [2]; 0.5 µg/mL (≈ 0.985 µM) in experiment [3]; 0.5 µg/mL (≈ 0.985 µM) in experiment [4]; 2 µg/mL (≈ 3.94 µM) in experiment [5].
On to `COc1cncc(-c2cccc(CNCC[C@H]3CN(c4ccc5c(n4)NC(=O)CO5)C(=O)O3)c2)n1` [Example 91, 6-((S)-5-{2-[3-(6-methoxy-pyrazin-2-yl)-benzylamino]-ethyl}-2-oxo-oxazolidin-3-yl)-4H-pyrido[3,2-b][1,4]oxazin-3-one], for which the MIC was ≤ 0.016 µg/mL in experiment [1]; 0.063 µg/mL (≈ 0.132 µM) in experiment [2]; 0.031 µg/mL (≈ 0.0651 µM) in experiment [3]; 0.031 µg/mL (≈ 0.0651 µM) in experiment [4]; 2 µg/mL (≈ 4.2 µM) in experiment [5].
For “6-((R)-5-{2-[3-(6-methoxy-pyridin-2-yl)-benzylamino]-ethyl}-2-oxo-oxazolidin-3-yl)-4H-pyrido[3,2-b][1,4]oxazin-3-one [Example 31]”, the “MIC for M. catarrhalis A894” value in experiment [1] is “≦0.016 mg/L”. Further, in experiment [2], the “MIC for A. baumannii T6474” value was found to be 0.5 µg/mL. The “MIC for S. aureus A798” value in experiment [3] was found to be 0.25 µg/mL. Further, the “MIC for S. aureus ATCC29213” value in experiment [4] was 0.25 µg/mL. In experiment [5], the “MIC for E. faecium A949” value came out at 2 µg/mL.
Take `COc1cccc(-c2cncc(CNCC[C@H]3CN(c4ccc5c(n4)NC(=O)CO5)C(=O)O3)n2)c1` [Example 104, 6-[(S)-5-(2-{[6-(3-methoxy-phenyl)-pyrazin-2-ylmethyl]-amino}-ethyl)-2-oxo-oxazolidin-3-yl]-4H-pyrido[3,2-b][1,4]oxazin-3-one]: the MIC amounted to 0.031 µg/mL (≈ 0.0651 µM) in experiment [1]; 0.5 µg/mL (≈ 1.05 µM) in experiment [2]; 0.25 µg/mL (≈ 0.525 µM) in experiment [3]; 0.25 µg/mL (≈ 0.525 µM) in experiment [4]; 2 µg/mL (≈ 4.2 µM) in experiment [5].
For the compound `COc1cc(O)cc(-c2cccc(CNCC[C@@H]3CN(c4ccc5c(c4)NC(=O)CS5)C(=O)O3)c2)c1` [Example 10, 6-((R)-5-{2-[(3′-hydroxy-5′-methoxy-biphenyl-3-ylmethyl)-amino]-ethyl}-2-oxo-oxazolidin-3-yl)-4H-benzo[1,4]thiazin-3-one], the MIC is ≤ 0.016 µg/mL in experiment [1]; 0.5 µg/mL (≈ 0.989 µM) in experiment [2]; 0.5 µg/mL (≈ 0.989 µM) in experiment [3]; 0.5 µg/mL (≈ 0.989 µM) in experiment [4]; 8 µg/mL (≈ 15.8 µM) in experiment [5].
As for `COc1cccc(-c2cc(CNCC[C@H]3CN(c4ccc5c(n4)NC(=O)CO5)C(=O)O3)ccc2O)n1` [Example 109], the “MIC for M. catarrhalis A894” value in experiment [1] was “≦0.016 mg/L”. Also, in experiment [2], the “MIC for A. baumannii T6474” value came to 0.125 µg/mL. The “MIC for S. aureus A798” value in experiment [3] was found to be 0.031 µg/mL. Also, in experiment [4], the “MIC for S. aureus ATCC29213” value worked out at 0.031 µg/mL. For the same compound, in experiment [5], the “MIC for E. faecium A949” value was 2 µg/mL.
Consider `COc1cccc(-c2cccc(CNCC[C@H]3CN(c4ccc5c(n4)NC(=O)CS5)C(=O)O3)c2O)n1` [Example 95, 6-((S)-5-{2-[2-hydroxy-3-(6-methoxy-pyridin-2-yl)-benzylamino]-ethy}-2-oxo-oxazolidin-3-yl)-4H-pyrido[3,2-b][1,4]thiazin-3-one], for which, in experiment [1], the “MIC for M. catarrhalis A894” value is “≦0.016 mg/L”. The “MIC for A. baumannii T6474” value in experiment [2] worked out at 0.063 µg/mL. Moreover, in experiment [3], the “MIC for S. aureus A798” value is recorded as “≦0.016 mg/L”. The “MIC for S. aureus ATCC29213” value in experiment [4] is reported as “≦0.016 mg/L”. The “MIC for E. faecium A949” value in experiment [5] was 0.125 µg/mL.
As for `O=C1COc2ccc(N3C[C@H](CCNCc4cccc(-c5cccc(OCC6CC6)c5)c4)OC3=O)nc2N1` [Example 58, 6-((S)-5-{2-[(3′-cyclopropylmethoxy-biphenyl-3-ylmethyl)-amino]-ethyl}-2-oxo-oxazolidin-3-yl)-4H-pyrido[3,2-b][1,4]oxazin-3-one], the minimum inhibitory concentration (MIC) turned out to be 0.125 µg/mL (≈ 0.243 µM) in experiment [1]; 8 µg/mL (≈ 15.5 µM) in experiment [2]; 1 µg/mL (≈ 1.94 µM) in experiment [3]; 2 µg/mL (≈ 3.89 µM) in experiment [4]; 8 µg/mL (≈ 15.5 µM) in experiment [5].
As for `COc1cc(-c2cccc(CNCC[C@@H]3CN(c4ccc5c(c4)NC(=O)CS5)C(=O)O3)c2)ncn1` [Example 24, 6-((R)-5-{2-[3-(6-methoxy-pyrimidin-4-yl)-benzylamino]-ethyl}-2-oxo-oxazolidin-3-yl)-4H-benzo[1,4]thiazin-3-one], the minimum inhibitory concentration (MIC) stood at 0.063 µg/mL (≈ 0.128 µM) in experiment [1]; 1 µg/mL (≈ 2.03 µM) in experiment [2]; 0.5 µg/mL (≈ 1.02 µM) in experiment [3]; 0.5 µg/mL (≈ 1.02 µM) in experiment [4]; 4 µg/mL (≈ 8.14 µM) in experiment [5].
In the case of `N#Cc1cc(-c2cccc(CNCC[C@H]3CN(c4ccc5c(n4)NC(=O)CO5)C(=O)O3)c2)cnn1` [Example 60, 5-[3-({2-[(S)-2-oxo-3-(3-oxo-3,4-dihydro-2H-pyrido[3,2-b][1,4]oxazin-6-yl)-oxazolidin-5-yl]-ethylamino}-methyl)-phenyl]-pyridazine-3-carbonitrile], the MIC in experiment [1] was 0.063 µg/mL (≈ 0.134 µM); in experiment [2] it was 1 µg/mL (≈ 2.12 µM); in experiment [3], 4 µg/mL (≈ 8.48 µM); in experiment [4] it was 2 µg/mL (≈ 4.24 µM); in experiment [5], > 8 µg/mL.
On the same counts, the results for `N#CC1(COc2cccc(-c3cccc(CNCC[C@H]4CN(c5ccc6c(n5)NC(=O)CO6)C(=O)O4)c3)c2)CCC1` [Example 71, 1-[3′-({2-[(S)-2-oxo-3-(3-oxo-3,4-dihydro-2H-pyrido[3,2-b][1,4]oxazin-6-yl)-oxazolidin-5-yl]-ethylamino}-methyl)-biphenyl-3-yloxymethyl]-cyclobutanecarbonitrile] are 0.25 µg/mL (≈ 0.452 µM), > 8 µg/mL, 1 µg/mL (≈ 1.81 µM), 1 µg/mL (≈ 1.81 µM) and 8 µg/mL (≈ 14.5 µM).

The record behind these values is US9527867B2, “Antibacterial biaromatic derivatives” (Actelion Pharmaceuticals Ltd., priority 2013, dated 2016).
